# Measurements reported in patent publication US8143408B2, “N-(8-heteroaryltetrahydronaphtalene-2yl) or N-(5-heteroarylchromane-3-yl) carboxamide derivatives for the treatment of pain” (AstraZeneca AB, priority 2007, dated 2012).
# Biological target: T1, Nav1.7 voltage-gated sodium channel (Homo sapiens, UniProt Q15858)
# T1 construct: Gene(s) encoding the full-length protein of the voltage-gated sodium channel of interest are cloned and expressed; expressed in transfected cells
# Experiment: Whole-cell voltage clamp electrophysiology assay
# Assay type: cell-based
# Details: cells stably expressing the voltage-gated sodium channel of interest
# How it was run: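 Cells expressing full-length channel, exposed to drug by integrated pipetting on automated patch-clamp platforms or by microperfusion in conventional whole-cell patch clamp. Channels activated by a voltage protocol depolarising from a defined holding potential; buffers per platform manufacturer.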
# T1 sequence (Q15858 whole entry): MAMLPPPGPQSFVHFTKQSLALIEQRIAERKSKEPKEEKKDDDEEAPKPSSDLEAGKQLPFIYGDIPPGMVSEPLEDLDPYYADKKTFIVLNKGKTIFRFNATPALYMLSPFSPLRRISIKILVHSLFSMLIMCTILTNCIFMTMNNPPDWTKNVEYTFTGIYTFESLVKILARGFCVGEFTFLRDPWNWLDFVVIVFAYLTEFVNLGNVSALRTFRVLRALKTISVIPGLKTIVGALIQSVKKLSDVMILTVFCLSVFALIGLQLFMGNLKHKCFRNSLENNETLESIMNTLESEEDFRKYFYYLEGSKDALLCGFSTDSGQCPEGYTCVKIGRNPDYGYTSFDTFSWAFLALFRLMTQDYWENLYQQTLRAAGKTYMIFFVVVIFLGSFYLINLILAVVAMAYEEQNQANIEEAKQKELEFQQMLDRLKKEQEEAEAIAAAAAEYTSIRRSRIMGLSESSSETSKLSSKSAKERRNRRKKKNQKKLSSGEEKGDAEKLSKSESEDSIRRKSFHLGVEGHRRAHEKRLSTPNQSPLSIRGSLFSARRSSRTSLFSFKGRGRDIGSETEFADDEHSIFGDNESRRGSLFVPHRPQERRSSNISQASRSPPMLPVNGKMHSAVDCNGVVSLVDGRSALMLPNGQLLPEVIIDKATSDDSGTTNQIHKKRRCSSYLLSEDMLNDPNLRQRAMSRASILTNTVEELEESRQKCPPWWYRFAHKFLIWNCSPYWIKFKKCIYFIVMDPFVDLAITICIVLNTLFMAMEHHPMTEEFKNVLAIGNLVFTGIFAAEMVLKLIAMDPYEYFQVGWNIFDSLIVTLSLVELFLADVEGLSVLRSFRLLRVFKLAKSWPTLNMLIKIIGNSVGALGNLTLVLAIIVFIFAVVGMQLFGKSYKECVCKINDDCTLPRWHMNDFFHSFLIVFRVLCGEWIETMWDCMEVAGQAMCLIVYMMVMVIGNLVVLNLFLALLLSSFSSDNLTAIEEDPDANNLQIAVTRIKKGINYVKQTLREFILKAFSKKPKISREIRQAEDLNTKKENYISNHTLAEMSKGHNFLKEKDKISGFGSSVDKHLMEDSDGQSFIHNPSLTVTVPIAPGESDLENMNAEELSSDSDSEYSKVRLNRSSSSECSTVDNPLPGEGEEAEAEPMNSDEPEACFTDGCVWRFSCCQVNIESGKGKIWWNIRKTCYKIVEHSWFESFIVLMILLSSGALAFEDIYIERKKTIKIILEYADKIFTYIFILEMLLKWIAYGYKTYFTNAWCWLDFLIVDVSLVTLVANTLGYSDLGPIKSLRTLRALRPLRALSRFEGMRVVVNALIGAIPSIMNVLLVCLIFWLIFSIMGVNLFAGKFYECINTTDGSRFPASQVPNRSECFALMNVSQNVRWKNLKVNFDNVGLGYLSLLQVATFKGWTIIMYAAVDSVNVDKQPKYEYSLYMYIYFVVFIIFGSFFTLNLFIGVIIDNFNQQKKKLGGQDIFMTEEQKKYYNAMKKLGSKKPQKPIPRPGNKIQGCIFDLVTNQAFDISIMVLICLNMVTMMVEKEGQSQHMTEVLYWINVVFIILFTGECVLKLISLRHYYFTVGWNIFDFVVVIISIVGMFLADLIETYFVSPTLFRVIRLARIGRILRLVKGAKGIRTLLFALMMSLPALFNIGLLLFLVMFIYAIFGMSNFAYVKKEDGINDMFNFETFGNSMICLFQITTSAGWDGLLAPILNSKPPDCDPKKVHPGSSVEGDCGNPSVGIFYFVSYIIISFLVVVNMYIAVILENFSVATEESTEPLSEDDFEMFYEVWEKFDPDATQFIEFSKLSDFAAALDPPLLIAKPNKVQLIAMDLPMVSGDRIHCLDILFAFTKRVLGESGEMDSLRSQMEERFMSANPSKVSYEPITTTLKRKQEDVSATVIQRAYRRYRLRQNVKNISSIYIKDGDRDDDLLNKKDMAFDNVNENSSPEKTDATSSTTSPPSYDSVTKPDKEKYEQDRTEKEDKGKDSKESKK
row,SMILES,IC50 [nM]
1,"COc1ncc(-c2cccc3c2C[C@H](NC(=O)c2ccc(OCCOCC(F)(F)F)nc2)CO3)cc1F [Example 180, N-[(3S)-5-(5-fluoro-6-methoxypyridin-3-yl)-3,4-dihydro-2H-chromen-3-yl]-6-[2-(2,2,2-trifluoroethoxy)ethoxy]nicotinamide]",316
2,"COc1ncc(-c2cccc3c2C[C@H](NC(=O)c2ccc(S(=O)(=O)C4CCCC4)nc2)CO3)cn1 [Example 181, 6-(cyclopentylsulfonyl)-N-[(3S)-5-(2-methoxypyrimidin-5-yl)-3,4-dihydro-2H-chromen-3-yl]nicotinamide]",501
3,"Cc1cncc(-c2cccc3c2C[C@H](NC(=O)c2ccc(OCCOCC(F)(F)F)nc2)CO3)n1 [Example 182, N-[(3S)-5-(6-methylpyrazin-2-yl)-3,4-dihydro-2H-chromen-3-yl]-6-[2-(2,2,2-trifluoroethoxy)ethoxy]nicotinamide]",63.1
4,"Cc1ncc(-c2cccc3c2C[C@H](NC(=O)c2ccc(C(=O)NCCC(F)(F)F)nc2)CO3)cn1 [Example 183, N^5-[(3S)-5-(2-methylpyrimidin-5-yl)-3,4-dihydro-2H-chromen-3-yl]-N^2-(3,3,3-trifluoropropyl)pyridine-2,5-dicarboxamide]",316
5,"COc1ncc(-c2cccc3c2C[C@H](NC(=O)c2ccc(OCCOC(C)C)nc2)CO3)cn1 [Example 184, 6-(2-isopropoxyethoxy)-N-[(3S)-5-(2-methoxypyrimidin-5-yl)-3,4-dihydro-2H-chromen-3-yl]nicotinamide]",501
6,"Cc1ncc(-c2cccc3c2C[C@H](NC(=O)c2ccc(OCCOC(C)C)nc2)CO3)cn1 [Example 185, 6-(2-isopropoxyethoxy)-N-[(3S)-5-(2-methylpyrimidin-5-yl)-3,4-dihydro-2H-chromen-3-yl]nicotinamide]",316
7,"Cc1ncc(-c2cccc3c2C[C@H](NC(=O)c2ccc(C(=O)NCCCOC(C)C)nc2)CO3)cn1 [Example 186, N^2-(3-isopropoxypropyl)-N^5-[(3S)-5-(2-methylpyrimidin-5-yl)-3,4-dihydro-2H-chromen-3-yl]pyridine-2,5-dicarboxamide]",2000
8,"COc1ncc(-c2cccc3c2C[C@H](NC(=O)c2ccc(C(=O)NCCCOC(C)C)nc2)CO3)cn1 [Example 187, N^2-(3-isopropoxypropyl)-N^5-[(3S)-5-(2-methoxypyrimidin-5-yl)-3,4-dihydro-2H-chromen-3-yl]pyridine-2,5-dicarboxamide]",1580
9,"Cc1ncc(-c2cccc3c2C[C@H](NC(=O)c2ccc(C(=O)NCCCC(F)(F)F)nc2)CO3)cn1 [Example 188, N^5-[(3S)-5-(2-methylpyrimidin-5-yl)-3,4-dihydro-2H-chromen-3-yl]-N^2-(4,4,4-trifluorobutyl)pyridine-2,5-dicarboxamide]",251
10,"Cc1ncc(-c2cccc3c2C[C@H](NC(=O)c2ccc(OCCOCC(F)(F)F)nc2)CO3)cn1 [Example 189, N-[(3S)-5-(2-methylpyrimidin-5-yl)-3,4-dihydro-2H-chromen-3-yl]-6-[2-(2,2,2-trifluoroethoxy)ethoxy]nicotinamide]",79.4
11,"COc1ncc(-c2cccc3c2C[C@H](NC(=O)c2ccnc(OCCOCC(F)(F)F)c2)CC3)cn1 [Example 190, N-[(2R)-8-(2-methoxypyrimidin-5-yl)-1,2,3,4-tetrahydronaphthalen-2-yl]-2-[2-(2,2,2-trifluoroethoxy)ethoxy]isonicotinamide]",7940
12,"COc1ncc(-c2cccc3c2C[C@H](NC(=O)c2ccc(C(=O)N(C)CC(F)(F)F)nc2)CO3)cn1 [Example 191, N^5-[(3S)-5-(2-methoxypyrimidin-5-yl)-3,4-dihydro-2H-chromen-3-yl]-N^2-methyl-N^2-(2,2,2-trifluoroethyl)pyridine-2,5-dicarboxamide]",794
13,"COc1ncc(-c2cccc3c2C[C@H](NC(=O)c2ccc(C(=O)N(C)CC(F)(F)F)nc2)CO3)cc1F [Example 192, N^5-[(3S)-5-(5-fluoro-6-methoxypyridin-3-yl)-3,4-dihydro-2H-chromen-3-yl]-N^2-methyl-N^2-(2,2,2-trifluoroethyl)pyridine-2,5-dicarboxamide]",631
14,"COc1ncc(-c2cccc3c2C[C@H](NC(=O)c2ccc(COCC(F)(F)F)nc2)CO3)cc1F [Example 193, N-[(3S)-5-(5-fluoro-6-methoxypyridin-3-yl)-3,4-dihydro-2H-chromen-3-yl]-6-[(2,2,2-trifluoroethoxy)methyl]nicotinamide]",158
15,"COc1ncc(-c2cccc3c2C[C@H](NC(=O)c2ccc(COCC(F)(F)F)nc2)CO3)cn1 [Example 194, N-[(3S)-5-(2-methoxypyrimidin-5-yl)-3,4-dihydro-2H-chromen-3-yl]-6-[(2,2,2-trifluoroethoxy)methyl]nicotinamide]",200
16,"COc1ncc(-c2cccc3c2C[C@H](NC(=O)c2cnc(NCCC(F)(F)F)nc2)CO3)cn1 [Example 195, N-[(3S)-5-(2-methoxypyrimidin-5-yl)-3,4-dihydro-2H-chromen-3-yl]-2-[(3,3,3-trifluoropropyl)amino]pyrimidine-5-carboxamide]",398
17,"CN(CC(F)(F)F)C(=O)c1ccc(C(=O)N[C@@H]2COc3cccc(-c4cnc(C5CC5)nc4)c3C2)cn1 [Example 196, N^5-[(3S)-5-(2-cyclopropylpyrimidin-5-yl)-3,4-dihydro-2H-chromen-3-yl]-N^2-methyl-N^2-(2,2,2-trifluoroethyl)pyridine-2,5-dicarboxamide]",501
18,"O=C(N[C@@H]1COc2cccc(-c3cnc(C4CC4)nc3)c2C1)c1ccc(C(=O)NCCC(F)(F)F)nc1 [Example 197, N^5-[(3S)-5-(2-cyclopropylpyrimidin-5-yl)-3,4-dihydro-2H-chromen-3-yl]-N^2-(3,3,3-trifluoropropyl)pyridine-2,5-dicarboxamide]",158
19,"CN(CCC(F)(F)F)C(=O)c1ccc(C(=O)N[C@@H]2COc3cccc(-c4cnc(C5CC5)nc4)c3C2)cn1 [Example 198, N^5-[(3S)-5-(2-cyclopropylpyrimidin-5-yl)-3,4-dihydro-2H-chromen-3-yl]-N^2-methyl-N^2-(3,3,3-trifluoropropyl)pyridine-2,5-dicarboxamide]",501
20,"O=C(N[C@@H]1COc2cccc(-c3cnc(C4CC4)nc3)c2C1)c1ccn(CCC(F)(F)F)c(=O)c1 [Example 199, N-[(3S)-5-(2-cyclopropylpyrimidin-5-yl)-3,4-dihydro-2H-chromen-3-yl]-2-oxo-1-(3,3,3-trifluoropropyl)-1,2-dihydropyridine-4-carboxamide]",501
21,"COc1ncc(-c2cccc3c2C[C@H](NC(=O)c2cnc(NCCC(F)(F)F)nc2)CO3)cc1F [Example 200, N-[(3S)-5-(5-fluoro-6-methoxypyridin-3-yl)-3,4-dihydro-2H-chromen-3-yl]-2-[(3,3,3-trifluoropropyl)amino]pyrimidine-5-carboxamide]",316
22,"Cc1ncc(-c2cccc3c2C[C@H](NC(=O)c2cnc(NCCC(F)(F)F)nc2)CO3)cn1 [Example 201, N-[(3S)-5-(2-methylpyrimidin-5-yl)-3,4-dihydro-2H-chromen-3-yl]-2-[(3,3,3-trifluoropropyl)amino]pyrimidine-5-carboxamide]",398
23,"Cc1cnc(-c2cccc3c2C[C@H](NC(=O)c2ccc(OCCOCC(F)(F)F)nc2)CO3)c(C)n1 [Example 202, N-[(3S)-5-(3,5-dimethylpyrazin-2-yl)-3,4-dihydro-2H-chromen-3-yl]-6-[2-(2,2,2-trifluoroethoxy)ethoxy]nicotinamide]",794
24,"Cc1ncc(-c2cccc3c2C[C@H](NC(=O)c2ccc(COCC(F)(F)F)nc2)CO3)cn1 [Example 203, N-[(3S)-5-(2-methylpyrimidin-5-yl)-3,4-dihydro-2H-chromen-3-yl]-6-[(2,2,2-trifluoroethoxy)methyl]nicotinamide]",200
25,"COc1ncc(-c2cccc3c2C[C@H](NC(=O)c2ccc(OC4CCOCC4)nc2)CO3)cc1C(=O)N(C)C [Example 204, 2-methoxy-N,N-dimethyl-5-[(3S)-3-({[6-(tetrahydro-2H-pyran-4-yloxy)pyridin-3-yl]carbonyl}amino)-3,4-dihydro-2H-chromen-5-yl]nicotinamide]",7940
26,"CNC(=O)c1cc(-c2cccc3c2C[C@H](NC(=O)c2ccc(OC(C)C)nc2)CO3)cnc1OC [Example 205, 5-[(3S)-3-{[(6-isopropoxypyridin-3-yl)carbonyl]amino}-3,4-dihydro-2H-chromen-5-yl]-2-methoxy-N-methylnicotinamide]",1260
27,"CNC(=O)c1cc(-c2cccc3c2C[C@H](NC(=O)c2ccc(OC4CCOCC4)nc2)CO3)cnc1OC [Example 206, 2-methoxy-N-methyl-5-[(3S)-3-({[6-(tetrahydro-2H-pyran-4-yloxy)pyridin-3-yl]carbonyl}amino)-3,4-dihydro-2H-chromen-5-yl]nicotinamide]",3160
28,"COc1ncc(-c2cccc3c2C[C@H](NC(=O)c2ccc(OC(C)C)nc2)CO3)cc1C(=O)N(C)C [Example 207, 5-[(3S)-3-{[(6-isopropoxypyridin-3-yl)carbonyl]amino}-3,4-dihydro-2H-chromen-5-yl]-2-methoxy-N,N-dimethylnicotinamide]",3980
29,"COc1ncc(-c2cccc3c2C[C@H](NC(=O)c2ccc(OCC(F)(F)F)nc2)CO3)cc1C(=O)N(C)C [Example 208, 2-methoxy-N,N-dimethyl-5-[(3S)-3-({[6-(2,2,2-trifluoroethoxy)pyridin-3-yl]carbonyl}amino)-3,4-dihydro-2H-chromen-5-yl]nicotinamide]",1580
30,"CN(C)C(=O)c1ncc(-c2cccc3c2C[C@H](NC(=O)c2ccc(OCCOCC(F)(F)F)nc2)CO3)cn1 [Example 209, N,N-dimethyl-5-{(3S)-3-[({6-[2-(2,2,2-trifluoroethoxy)ethoxy]pyridin-3-yl}carbonyl)amino]-3,4-dihydro-2H-chromen-5-yl}pyrimidine-2-carboxamide]",7940
